# Data as given in patent US9067920B2, “Compounds useful for inhibiting Chk1” (Eli Lilly and Company, priority 2010, dated 2015).
# Where a name gives a salt, the structure may show the parent alone.
# Legend:
# Chk1 = molecular target: T1, Chk1 (Homo sapiens, UniProt O14757); assay: Chk1 autophosphorylation cell based assay (phospho-Chk1 serine 296 immunoblot, doxorubicin-treated HeLa cells); set-up: endogenous in cells; host or cells: HeLa; details: 100 nM doxorubicin, 2 h compound, read-out: EC50 (inhibition of doxorubicin induced Chk1 autophosphorylation)
# T1 sequence (O14757 1-476): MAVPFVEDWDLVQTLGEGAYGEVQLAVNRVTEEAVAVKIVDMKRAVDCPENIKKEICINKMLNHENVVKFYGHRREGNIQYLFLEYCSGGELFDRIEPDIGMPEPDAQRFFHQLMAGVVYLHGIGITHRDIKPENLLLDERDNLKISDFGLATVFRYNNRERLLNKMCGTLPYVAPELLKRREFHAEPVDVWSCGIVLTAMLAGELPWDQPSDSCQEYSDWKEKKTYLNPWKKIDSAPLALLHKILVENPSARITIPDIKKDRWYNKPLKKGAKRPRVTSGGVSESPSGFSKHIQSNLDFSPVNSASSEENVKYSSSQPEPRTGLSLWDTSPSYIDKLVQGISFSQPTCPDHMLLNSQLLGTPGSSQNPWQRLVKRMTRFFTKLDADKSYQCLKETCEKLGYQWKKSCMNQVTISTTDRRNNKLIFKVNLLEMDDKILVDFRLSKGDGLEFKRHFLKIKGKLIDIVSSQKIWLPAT
# Protocol: An inhibitor of Chk1 will prevent the kinase activity of the protein from phosphorylating substrates in cells in which the DNA damage response has been activated. An easily detectable substrate for Chk1 is an autophosphorylation site on Chk1 itself, serine 296. The following immunoblot assay can be used to measure the amount of phosphorylation of serine 296 on Chk1 and indirectly the activity level of the Chk1 protein kinase, HeLa cells are cultured in MEM w/Earle's Balanced Salt Solution with L-glutamine supplemented with 10% (v/v) heat inactivated fetal bovine serum, 1×MEM non-essential amino acids, 1× sodium pyruvate and 1×10^5 cells plated in 600 μL of MEM culture media per well of a […] cell culture plate. Cells are incubated for 24 h at 37° C., 5% CO2 and […]. Sixteen μL of a 4 μM stock of doxorubicin in culture media are added to each appropriate well to make a final concentration of 100 nM doxombicin. Plates are returned to the incubator for 24 additional hours prior to Chk1 inhibitor compound addition. […] Antigen-antibody-reporter conjugates immobilized on the membrane are detected with the Super Signal Western Femto HRP-detection reagent using a FUJI LAS-4000 imaging system. Phospho-Chk1 (ser296) band intensities are calculated using “Total Lab” software (Nonlinear Dynamics). […]
# [1] = test system: HT-29 colon tumor xenograft; assay: HT-29 tumor xenograft model, oral administration of Chk1 inhibitor; format: in vivo, nude mice
# Protocol: The ability of Chk1 inhibitors to potentiate tumor killing by DNA damaging agents can be determined in vivo using the Calu-6 lung and HT-29 colon tumor xenograft efficacy models. Calu-6 lung cancer cells are cultured in growth media (MEM with Earle's Balanced Salt Solution with L-glutamine supplemented with 10% (v/v) heat inactivated FBS, 1×MEM non-essential amino acids, 1× sodium pyruvate) and HT-29 colon cancer cells (ATCC) are cultured in growth media, (McCoy's 5A medium supplemented with 10% FBS) and expanded.
# Cells are harvested and washed twice with phosphate buffered saline and 5×10^6 cells (HT-29) or 1×10^6 a cells (Calu-6) in growth media (without serum) are mixed with equal volume of BD Matrigel™ matrix, then injected subcutaneously into the flank of nude mice (CD-1 nu/nu).
# At about day 16 after implant (150-200 mm^3), gemcitabine is formulated fresh in saline daily and administered to animals by intraperitoneal route at 40 mg/kg dose. Twenty four hours later animals are administered Chk1 compound, in 0.2% Tween-80/0.5% methylcellulose by the oral route MD. After three days of rest, dosing was repeated for three additional cycles (Q5Dx4 with the compound of Example 3 offset+24 hours). Tumor growth inhibition (TGI) is calculated as described in the previous paragraph. Compounds within the scope of the invention are tested in this assay run substantially as above.
SMILES,EC50 (Chk1),"% TGI at day 50 ([1]; HT29, Example 3 30 mpk oral alone)","anti-tumor activity in combination with gemcitabine ([1]; HT-29 xenograft, oral, gemcitabine 40 mg/kg ip)","increase in tumor growth inhibition over gemcitabine alone ([1]; oral, stated for HT-29 and Calu-6 models together)"
"COc1nc(C)ccc1-c1cc(Nc2cncc(O[C@@H]3CCCNC3)n2)[nH]n1 [Example 1, (R)-[5-(2-Methoxy-6-methyl-pyridin-3-yl)-2H-pyrazol-3-yl]-[6-(piperidin-3-yloxy)-pyrazin-2-yl]-amine]",< 1 nM,,,
"COc1nc(C)ccc1-c1cc(Nc2cncc(O[C@@H]3CCCNC3)n2)[nH]n1 [Example 3, (R)-[5-(2-Methoxy-6-methyl-pyridin-3-yl)-2H-pyrazol-3-yl]-[6-(piperidin-3-yloxy)-pyrazin-2-yl]-amine acetic acid salt]",,39%,excellent dose dependent anti-tumor activity,"≤ 2,9 fold"
